This is an account of results in patent publication US8871751B2, “Compositions and methods relating to nuclear hormone and steroid hormone receptors including inhibitors of estrogen receptor alpha-mediated gene expression and inhibition of breast cancer” (The Board of Trustees of the University of Illinois, priority 2008, dated 2014).

Read-outs that look alike come from different tables or passages of the source.

Usually IC50 stands for the point on the concentration scale where inhibition reaches its midpoint.

In series [1] the target is T1, human androgen receptor (AR) binding to flARE (Homo sapiens, UniProt P10275).
T1 construct: AR assays contained 1 nM flcARE and 50 nM full-length wild-type AR; FLAG; made in house
T1 sequence (P10275 1-920): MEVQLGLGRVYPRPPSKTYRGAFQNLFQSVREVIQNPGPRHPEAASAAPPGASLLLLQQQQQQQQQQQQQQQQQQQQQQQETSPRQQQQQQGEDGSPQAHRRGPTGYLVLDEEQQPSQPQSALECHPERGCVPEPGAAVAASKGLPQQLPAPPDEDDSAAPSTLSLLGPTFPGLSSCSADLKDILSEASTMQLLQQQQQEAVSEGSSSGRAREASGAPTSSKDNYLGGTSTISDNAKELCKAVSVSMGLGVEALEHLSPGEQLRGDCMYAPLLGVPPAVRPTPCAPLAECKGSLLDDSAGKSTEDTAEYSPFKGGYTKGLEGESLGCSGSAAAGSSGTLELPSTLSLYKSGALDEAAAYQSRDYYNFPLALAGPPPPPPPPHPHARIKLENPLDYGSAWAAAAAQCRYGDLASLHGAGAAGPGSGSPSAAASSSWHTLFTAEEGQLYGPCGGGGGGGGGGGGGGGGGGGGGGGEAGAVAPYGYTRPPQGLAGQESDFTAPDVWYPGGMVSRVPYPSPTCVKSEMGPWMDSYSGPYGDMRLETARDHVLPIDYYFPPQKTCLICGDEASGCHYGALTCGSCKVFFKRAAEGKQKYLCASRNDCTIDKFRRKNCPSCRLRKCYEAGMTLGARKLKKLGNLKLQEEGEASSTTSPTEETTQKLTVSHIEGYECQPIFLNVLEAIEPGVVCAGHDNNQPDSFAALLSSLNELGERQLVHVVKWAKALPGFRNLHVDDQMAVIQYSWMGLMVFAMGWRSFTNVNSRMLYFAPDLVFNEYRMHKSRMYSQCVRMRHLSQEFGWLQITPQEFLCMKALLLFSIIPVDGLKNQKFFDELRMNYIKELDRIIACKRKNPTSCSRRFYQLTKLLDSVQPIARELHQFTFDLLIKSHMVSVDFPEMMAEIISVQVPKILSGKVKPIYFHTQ
Description: FAMA: inhibition of AR binding to flcARE. Particulars: binding to HRE, 5 concentrations 0.5-10 μM, sequential method. The protocol: (§1) Dose response curves for selected compounds were carried out as described for the HTS screen except that each well contained the indicated concentration of test compound. PR assays were carried out in the same buffer used for ERα assays and contained 1 nM flcPRE and 11 nM PR-B and 100 nM progesterone. The buffer used for AR was similar but also contained 5 μM ZnCl, 5 mM NaF, 0.6 μM CHAPS and 100 nM dihydrotestosterone. AR assays contained 1 nM flcARE and 50 nM full-length wild-type AR.
(§2) Specificity was evaluated in dose-response studies by quantitative FAMA using purified full-length human PR binding to a fluorescein-labeled progesterone/glucocorticoid response element (flPRE) and full-length human androgen receptor (AR) binding to a fluorescein-labeled androgen response element (flARE).

The target in series [2] is T2, human PR-B binding to flPRE (Homo sapiens, UniProt P06401).
T2 construct: FLAG; made in house
T2 sequence (P06401 1-933): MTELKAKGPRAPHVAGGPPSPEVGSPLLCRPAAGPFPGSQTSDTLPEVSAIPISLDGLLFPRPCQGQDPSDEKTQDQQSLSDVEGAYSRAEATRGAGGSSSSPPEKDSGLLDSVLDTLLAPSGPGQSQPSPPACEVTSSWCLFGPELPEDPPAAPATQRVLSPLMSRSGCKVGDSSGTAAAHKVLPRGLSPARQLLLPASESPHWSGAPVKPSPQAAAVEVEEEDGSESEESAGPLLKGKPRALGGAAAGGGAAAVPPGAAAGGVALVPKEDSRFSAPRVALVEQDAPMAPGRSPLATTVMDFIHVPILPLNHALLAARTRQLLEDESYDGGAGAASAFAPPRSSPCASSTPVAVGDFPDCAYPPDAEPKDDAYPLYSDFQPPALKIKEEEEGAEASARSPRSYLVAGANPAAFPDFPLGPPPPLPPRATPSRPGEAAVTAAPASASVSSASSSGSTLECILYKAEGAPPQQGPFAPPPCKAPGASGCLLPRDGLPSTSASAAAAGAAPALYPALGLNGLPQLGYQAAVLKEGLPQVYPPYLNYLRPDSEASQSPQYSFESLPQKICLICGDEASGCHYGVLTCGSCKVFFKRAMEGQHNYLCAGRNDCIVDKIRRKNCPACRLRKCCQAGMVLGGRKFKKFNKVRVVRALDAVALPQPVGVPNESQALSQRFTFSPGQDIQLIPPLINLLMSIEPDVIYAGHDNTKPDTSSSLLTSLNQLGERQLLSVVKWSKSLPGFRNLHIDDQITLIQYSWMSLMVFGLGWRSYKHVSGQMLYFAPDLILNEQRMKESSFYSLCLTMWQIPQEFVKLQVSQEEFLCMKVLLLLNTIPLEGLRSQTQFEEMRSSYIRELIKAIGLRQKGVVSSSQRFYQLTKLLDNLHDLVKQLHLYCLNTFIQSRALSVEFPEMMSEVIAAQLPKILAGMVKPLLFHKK
In words: FAMA: inhibition of PR binding to flcPRE. The note with it: binding to HRE, 5 concentrations 0.5-10 μM, sequential method. The protocol: as §1, §2

For series [3], the system named is BG-1 ovarian cancer cells. Description: BG-1 cell growth assay (MTS). In kind it is cell-based. The note with it: for IC50: 10 pM E2, 5 days, MTS, read-out: IC50 for inhibition of E2-dependent growth of BG-1 cells. How it is done: ERα positive BG-1 ovarian cancer cells (44) were provided by Prof. K. Korach. ERα negative MDA-MB-231 human breast cancer cell lines were provided by Prof. A. Nardulli. The cells are maintained in phenol red-free MEM medium with 5% calf serum and antibiotics. 4 days before hormone induction, cells are switched to phenol red-free MEM medium containing 5% 2XCD-treated calf serum for BG-1 cells. For BG-1 cell growth assays, 250 cells in 100 μl of phenol-red-free medium were added to wells of a 96-well plate. After 24 h, the indicated concentrations of the test compounds and 10 pM E2 or ethanol vehicle were added to each well. Compounds in DMSO were diluted in medium so that the DMSO concentration was not greater than 0.5%. Cell viability assays were carried out 5-6 days later using Promega CellTiter 96®Aqueous One Solution Cell Proliferation Assay (Promega, Wis.).

On to `Cn1c(=O)c2nc(CSCc3ccccc3)[nH]c2n(C)c1=O` [Compound 95910, 8-Benzylsulfanylmethyl-1,3-dimethyl-3,7-dihydro-purine-2,6-dione], for which the IC50 turned out to be 7.6 µM in series [1]; 9.5 µM in series [2]; 5 µM in series [3] (Homo sapiens, BG-1, 120 h). In series [3], the “potency for inhibiting E2-ERα-dependent cell growth relative to nonspecific toxicity” value was more than 10 fold. Also, the “effect on E2-independent growth of BG-1 cells” value in series [3] (no E2, 5 days) was “had no effect”.
On to `CN1CCC(C#N)c2ccccc21` (centres unmarked) [Compound 1529], for which the IC50 was 5.2 µM in series [1], 7.5 µM in series [2] and approximately 5 µM in series [3]. In series [3] (no E2, 5 days), the “concentration inhibiting growth of BG-1 cells in the absence of E2” value was more than 5 µM.
Consider `CN(C)CCCn1c2c3ccccc3ccc2c2oc(=O)c3ccccc3c21` [Compound 638432], for which the IC50 in series [1] worked out at 5 µM; in series [2], 7.4 µM.
